From US12605380B2, “Methods of improving lung function” (Endeavor BioMedicines, Inc., priority 2024, dated 2026)

Experiments:
Assay type in all cases: in vivo, human
[1] = system: subjects with Idiopathic Pulmonary Fibrosis (IPF); assay: Post-hoc analysis of HRCT images with Qureight deep learning models (Lung8, Vascul8, Fibr8)
Excerpt: A post-hoc analysis utilizing deep learning models developed by Qureight (using machine learning methodologies such as 3D convolutional neural networks), were employed to quantify lung volume (Lung8), vessel volume (Vascul8), fibrosis extent (Fibr8) and airway volume (Air8) from High Resolution Computed Tomography images. Deep learning-based CT biomarkers provide an alternate, non-invasive way to predict disease progression and/or assess treatment effects in antifibrotic clinical trials. 34 patients with baseline and week 12 HRCTs were available for model analysis. Of the 34 patients, 18 patients received placebo, and 16 received ENV-101. Group comparisons were performed with an independent t-test, and linear regression assessed variable relationships. Effect sizes were calculated using Hedges' G to account for sample size bias. A p-value<0.05 was considered significant.

[2] = system: subjects with Idiopathic Pulmonary Fibrosis (IPF); assay: Phase 2a study in IPF subjects: quantitative HRCT measurements (TLC, % QILD, % QLF, % QGG)
Procedure: (§1) Study Design. Eligible subjects with mild to moderate IPF were randomized to receive placebo or ENV-101 as a daily oral dose for 12 consecutive weeks of treatment. […] Subjects participated in a Screening Visit, a Day 1 randomization visit, a telephone visit at Week 1, visits at Week 6 and Week 12 during the treatment period and a follow-up visit at Week 18. All subjects were randomized to receive either placebo or 200 mg of taladegib (ENV-101). During the treatment period, if a subject experienced an adverse event that is related to the study medication, the dose of the study drug was permitted to be modified based on the type of adverse event observed and after consultation with the Sponsor and Medical Monitor. A study subject was considered to have completed the study if he or she completed all study visits including the last visit or the last scheduled procedure shown in the Schedule of Activities (SoA). [table] The dosing regimen evaluated in this study was ENV-101 or placebo administered daily. The dose of ENV-101 studied was 200 mg. Subjects randomized to ENV-101 took two 100 mg tablets daily for the 200 mg dose, while subjects randomized to placebo took two placebo tablets daily. Subjects took both tablets at the same time, and it was recommended that subjects take the dose at the same time each day, ideally in the morning prior to eating. If a subject experienced nausea or other gastrointestinal symptoms, it was recommended that the subject take the dose with a low-fat meal or prior to bedtime.

[3] = system: subjects with Idiopathic Pulmonary Fibrosis (IPF); assay: Phase 2a study in IPF subjects: lung function by forced vital capacity (FVC, ppFVC)
Procedure: Study Design. Eligible subjects with mild to moderate IPF were randomized to receive placebo or ENV-101 as a daily oral dose for 12 consecutive weeks of treatment. […] Subjects participated in a Screening Visit, a Day 1 randomization visit, a telephone visit at Week 1, visits at Week 6 and Week 12 during the treatment period and a follow-up visit at Week 18. All subjects were randomized to receive either placebo or 200 mg of taladegib (ENV-101). During the treatment period, if a subject experienced an adverse event that is related to the study medication, the dose of the study drug was permitted to be modified based on the type of adverse event observed and after consultation with the Sponsor and Medical Monitor. A study subject was considered to have completed the study if he or she completed all study visits including the last visit or the last scheduled procedure shown in the Schedule of Activities (SoA). • 1. Males and females greater than 40 years of age. • 2. Idiopathic Pulmonary Fibrosis diagnosis based upon […], Japanese Respiratory Society, European Respiratory Society, Latin […] guidelines within the last 7 years. Diagnosis will be confirmed to be consistent with IPF by centrally read high resolution computed tomography (HRCT) obtained at the Screening Visit or previous HRCT scan performed within 30 days of the Screening Visit may be used. • 3. Ability to successfully perform lung function tests. • 4. Percent predicted forced vital capacity (FVC) of >50% at the Screening Visit. • 5. […] Evidence of other known causes of interstitial lung disease (ILD) (e.g., domestic and occupational environmental exposures, connective-tissue disease [CTD], and drug toxicity), lung transplant expected within 12 months of screening or evidence of clinically significant lung disease other than IPF including but not limited to asthma, chronic obstructive pulmonary disease (COPD), uncontrolled pulmonary hypertension and emphysema where computed tomography (CT)-assessed extent of emphysema is greater than extent of fibrosis. • 2. […]

[4] = system: subjects with Idiopathic Pulmonary Fibrosis (IPF); assay: Phase 2a study in IPF subjects: patient reported outcome, UCSD Shortness of Breath Questionnaire (SOBQ); details: 200 mg once a day, vs placebo, not statistically significant
Procedure: as §1, with “If a subject experienced nausea or other gastrointestinal symptoms, it was recommended that the subject take the dose with a low-fat meal or prior to bedtime.” left out

[5] = week 12, ENV-101 vs placebo, Hedges' G

CN(C(=O)c1ccc(F)cc1C(F)(F)F)C1CCN(c2nnc(-c3ccnn3C)c3ccccc23)CC1 [taladegib]
fibrosis (conclusion in words) ([1]; treated over 12 weeks): reduced | lung volume (conclusion in words) ([1]; treated over 12 weeks): significantly improved | pulmonary vascular volume (conclusion in words) ([1]; treated over 12 weeks): significantly reduced | Change in Pulmonary vascular volume (normalised to lung volume) ([1]; week 12, 16 patients on ENV-101, p=0.0007 vs placebo): −0.25% | Lung volume change (total lung volume, Lung8) ([1]; week 12, 16 patients on ENV-101, p=0.014 vs placebo): 142.28 mL | Change in Fibrosis (extent, normalised to lung volume) ([1]; week 12, 16 patients on ENV-101, p=0.063 vs placebo): −1.32% | effect size, change in pulmonary vascular volume [1, 5]: −1.28 | effect size, lung volume change [1, 5]: 0.87 | change from baseline in percent quantitative ground glass opacity (% QGG) ([2]; 200 mg once a day for 12 weeks): about −4.6% | change from baseline in percent quantitative interstitial lung disease (% QILD) ([2]; 200 mg once a day for 12 weeks): about −9% | change from baseline in percent quantitative lung fibrosis (% QLF) ([2]; 200 mg once a day for 12 weeks): about −2% | increase in total lung capacity (TLC) ([2]; 200 mg once a day for 12 weeks, p=0.005): about 200 mL | increase in total lung capacity (TLC), percent ([2]; 200 mg once a day, over the three month treatment period): about 8% | mean change from baseline of percent predicted forced vital capacity (ppFVC) ([3]; IPF subjects, 200 mg QD, at 6 weeks (n=16)): 1.7% | effect size, % predicted FVC ([3]; post-hoc analysis, ENV-101 vs placebo, Hedges' G): 0.78 | % predicted FVC compared to placebo ([3]; post-hoc analysis, patients with baseline and week 12 HRCT, p=0.03): significant improvement | mean change from baseline of responses to the UCSD Shortness of Breath Questionnaire (SOBQ) [4]: improvement
